Results from patent publication US9849104B2 (Gemphire Therapuetics Inc., priority 2015, dated 2017).
Read-outs that look alike come from different tables or passages of the source.

Experiments:
[1] = system: STAM model of non-alcoholic steatohepatitis (NASH)
Description: Telmisartan (Micardis®) was purchased from Boehringer Ingelheim GmbH (Germany) and dissolved in pure water.
Telmisartan was administered at a dose of 10 mg/kg once daily.
Eight-hour fasting blood glucose was measured in whole blood using Life Check (EIDIA Co. Ltd., Japan). For plasma biochemistry, eight-hour fasting blood was collected in polypropylene tubes with anticoagulant (Novo-Heparin, Mochida Pharmaceutical, Japan) and centrifuged at 1,000×g for 15 minutes at 4° C. The supernatant was collected and stored at −80° C. until use. Plasma insulin levels were quantified by Ultra Sensitive Mouse Insulin ELISA kit (Morinaga Institute of Biological Science, Inc., Japan).
On the day of termination, non-fasting blood glucose was measured in whole blood using Life Check. For plasma biochemistry, non-fasting blood was collected in polypropylene tubes with anticoagulant (Novo-Heparin) and centrifuged at 1,000×g for 15 minutes at 4° C. The supernatant was collected and stored at −80° C. until use. Plasma ALT, AST, ALP, GGT, BUN, creatinine and total bilirubin levels were measured by FUJI DRI-CHEM 7000 (Fujifilm Corporation, Japan). Plasma ketone body levels were quantified by EnzyChrom™ Ketone Body Assay Kit (BioAssay Systems, USA).
Liver samples were homogenized in chloroform-methanol (2:1, v/v) and incubated overnight at room temperature. After washing with chloroform-methanol-water (8:4:3, v/v/v), the extracts were evaporated to dryness, and dissolved in isopropanol. Liver triglyceride content was measured by Triglyceride E-test (Wako Pure Chemical Industries). […]
Statistical analyses were performed using Bonferroni Multiple Comparison Test on GraphPad Prism 6 (GraphPad Software Inc., USA). […] Results were expressed as mean±SD.
The viability, clinical signs and behavior were monitored daily. Body weight was recorded before the treatment. […] The animals were sacrificed by exsanguinations through direct cardiac puncture under isoflurane anesthesia (Pfizer Inc.) at 9 weeks of age.

[2] = male, Wistar, rat, in vivo, po, 10 mg/kg
Description: Dose solution was prepared by dissolving labeled drug in 0.45 mL ethanol and 4.05 mL 0.5% methylcellulose in water. […] Final specific activity of dose solution was 10.37 μCi/mg.
Male Wistar rats with an average weight of 202 g were fasted overnight prior to dosing. […] Carcasses were rapidly frozen in dry ice/hexane mixture and prepared for whole body sectioning and autoradiography. Sections of 50 μm thickness were air dried at −20° C. and applied to BioMax scientific imaging film (Eastman Kodak, Rochester, N.Y.) or phosphor imaging plates for autoradiographic exposure (Molecular Dynamics, Sunnyvale, Calif.). Carbon-14 standards (American Radiolabeled Chemicals, St. Louis) were included on representative films and plates for calibration of the analyzer. Processed films were digitized with the analyzer scanner (Loats INQUIRY image analysis system, Loats Associates, Westminster, Md.), and radioactivity remaining in tissues was determined by quantitative video densitometric analysis of digital images. Imaging plates were scanned after 1-week exposure. Resulting electronic images were used for preliminary evaluation of distribution.

[3] = Musculoskeletal adverse events, study A4141001; format: in vivo, human
[4] = A4141001, patient type IIa + IIb

Structure (SMILES): CCCc1nc2c(C)cc(-c3nc4ccccc4n3C)cc2n1Cc1ccc(-c2ccccc2C(=O)O)cc1 [Telmisartan, reference compound]
- NAFLD Activity score, NAS (mean ± SD) ([1]; STAM NASH mice, 10 mg/kg PO QD 6-9 wks, 10 mg/kg): significant reduction
- mortality during the treatment period ([1]; STAM NASH mice, 10 mg/kg PO QD, before reaching Day 21): one mouse was found dead
- Fasting blood glucose (mean ± SD) ([1]; STAM NASH mice, 10 mg/kg PO QD, Day 18, 8 hours of fasting, listed as telemisartan, 10 mg/kg): significant increase
- Liver triglyceride (mean ± SD) ([1]; STAM NASH mice, 10 mg/kg PO QD, Day 21, listed as telemisartan, 10 mg/kg): significant decrease
- Non-fasting blood glucose (mean ± SD) ([1]; STAM NASH mice, 10 mg/kg PO QD, termination (Day 21), listed as telemisartan, 10 mg/kg): significant increase
- fibrosis area compared with the Vehicle in NASH group ([1]; STAM NASH mice, all treatment groups (gemcabene 30, 100, 300 mg/kg; telmisartan 10 mg/kg)): significantly decreased
- Plasma ALP (mean ± SD) ([1]; mouse, in vivo, po, 10 mg/kg): significant increases
- Plasma BUN (mean ± SD) ([1]; mouse, in vivo, po, 10 mg/kg): significant increase
- Plasma GGT (mean ± SD) ([1]; mouse, in vivo, po, 10 mg/kg): 1 ± 0 U/L
- Plasma creatinine (mean ± SD) ([1]; mouse, in vivo, po, 10 mg/kg): 0.1 ± 0.0 mg/dL

Structure (SMILES): CC(C)(CCCCOCCCCC(C)(C)C(=O)O)C(=O)O [[14C] gemcabene]
- radioequivalents remaining in Adrenal ([2]; 1 h): 6.05 μg equivalents/g
- radioequivalents remaining in Blood ([2]; 1 h): 15.46 μg equivalents/g
- radioequivalents remaining in Brain ([2]; 1 h): 0.41 μg equivalents/g
- radioequivalents remaining in Kidney ([2]; 1 h): 18.75 μg equivalents/g
- radioequivalents remaining in Liver ([2]; 1 h): 35.78 μg equivalents/g
- radioequivalents remaining in Lung ([2]; 1 h): 11.69 μg equivalents/g
- radioequivalents remaining in Muscle ([2]; 1 h): 1.35 μg equivalents/g
- radioequivalents remaining in Adrenal ([2]; 4 h): 4.76 μg equivalents/g
- radioequivalents remaining in Blood ([2]; 4 h): 13.65 μg equivalents/g
- radioequivalents remaining in Brain ([2]; 4 h): 0.47 μg equivalents/g
- radioequivalents remaining in Kidney ([2]; 4 h): 17.84 μg equivalents/g
- radioequivalents remaining in Liver ([2]; 4 h): 37.08 μg equivalents/g
- radioequivalents remaining in Lung ([2]; 4 h): 10.15 μg equivalents/g
- radioequivalents remaining in Muscle ([2]; 4 h): 1.40 μg equivalents/g
- radioequivalents remaining in Adrenal ([2]; 8 h): 4.29 μg equivalents/g
- radioequivalents remaining in Blood ([2]; 8 h): 9.75 μg equivalents/g
- radioequivalents remaining in Brain ([2]; 8 h): 0.43 μg equivalents/g
- radioequivalents remaining in Kidney ([2]; 8 h): 16.44 μg equivalents/g
- radioequivalents remaining in Liver ([2]; 8 h): 27.42 μg equivalents/g
- radioequivalents remaining in Lung ([2]; 8 h): 7.59 μg equivalents/g
- radioequivalents remaining in Muscle ([2]; 8 h): 0.99 μg equivalents/g
- radioequivalents remaining in Adrenal ([2]; 24 h): 1.42 μg equivalents/g
- radioequivalents remaining in Blood ([2]; 24 h): 4.69 μg equivalents/g
- radioequivalents remaining in Brain ([2]; 24 h): 0.24 μg equivalents/g
- radioequivalents remaining in Kidney ([2]; 24 h): 17.45 μg equivalents/g
- radioequivalents remaining in Liver ([2]; 24 h): 24.35 μg equivalents/g
- radioequivalents remaining in Lung ([2]; 24 h): 3.58 μg equivalents/g
- radioequivalents remaining in Muscle ([2]; 24 h): 0.45 μg equivalents/g
- radioequivalents remaining in Adrenal ([2]; 48 h): 0.22 μg equivalents/g
- radioequivalents remaining in Blood ([2]; 48 h): 0.44 μg equivalents/g
- radioequivalents remaining in Kidney ([2]; 48 h): 7.23 μg equivalents/g
- radioequivalents remaining in Liver ([2]; 48 h): 3.64 μg equivalents/g
- radioequivalents remaining in Lung ([2]; 48 h): 0.36 μg equivalents/g
- radioequivalents remaining in Kidney ([2]; 96 h): 0.83 μg equivalents/g
- radioequivalents remaining in Liver ([2]; 96 h): 0.24 μg equivalents/g

Structure (SMILES): CC(C)c1c(C(=O)Nc2ccccc2)c(-c2ccccc2)c(-c2ccc(F)cc2)n1CC[C@@H](O)C[C@@H](O)CC(=O)O [Atorvastatin, reference compound]
- % = the percent of patients experiencing a musculoskeletal adverse event ([3]; A4141001, patient type IIa): 9.1%
- No = the number of muscle skeletal adverse events ([3]; A4141001, patient type IIa): 2
- % = the percent of patients experiencing a musculoskeletal adverse event [3, 4]: 13.5%
- No = the number of muscle skeletal adverse events [3, 4]: 7
- % = the percent of patients experiencing a musculoskeletal adverse event ([3]; A4141001, patient type IIb): 16.7%
- No = the number of muscle skeletal adverse events ([3]; A4141001, patient type IIb): 5
